Experimental data reported in patent US20220256902A1, “NOVEL STEVIOL GLYCOSIDE, METHOD FOR PRODUCING SAME, AND SWEETENER COMPOSITION CONTAINING SAME” (SUNTORY HOLDINGS LIMITED, priority 2019, published 2022).

Key:
[1] = Evaluation of sweetness level: choosing the sugar-added sample of equivalent sweetness intensity; type: in vivo
Protocol: In order to evaluate the sweetness levels of Novel steviol glycosides A and B, samples were prepared by adding sugar to pure water to give Brix of 3.0 to 5.0 in 0.5 increments. Compounds 15 and 17 obtained by the chemical syntheses were used as Novel steviol glycosides A and B, respectively, where 48 mg of each sample was dissolved in 400 mL of pure water to be tested. In addition, samples were also prepared for comparison by dissolving 48 mg of each of Reb.A, Reb.D and Reb.M in 400 mL of pure water.

[2] = Sensory evaluation of taste quality of beverage samples (sweetness on-set, lingering sweet aftertaste, bitterness, lingering bitter aftertaste); type: in vivo
From the text: In order to evaluate the taste quality of various steviol glycosides, Reb.A, Reb.D, Reb.M, sugar and Novel steviol glycoside A (Compound 15) were each added to pure water to prepare beverage samples. All of the beverage samples were adjusted to have final sweetness level (Brix) of 5 in terms of sugar (sucrose), and thus the sweetness levels of Reb.A, Reb.D, Reb.M and Novel steviol glycoside A (Compound 15) were 312, 317, 341 and 354, respectively.
(§1) The resulting beverage samples were subjected to sensory evaluation for rating the attributes, which were sweetness on-set, lingering sweet aftertaste, bitterness and lingering bitter aftertaste. Panelists who had been trained about sensory attributes of sweeteners (7 members) evaluated based on the following evaluation criteria. For each evaluation item, the steviol glycosides were scored in 0.5 increments provided that the score of sugar was 3. […]
as §1

[3] = evaluation with Novel steviol glycoside A (Compound 15), restated averages of Table 2
[4] = evaluation with Novel steviol glycoside B (Compound 17), restated averages of Table 3

| Compound | sweetness levels taken for adjusting the beverage samples to Brix 5 in terms of sugar [1, 3] | sweetness levels taken for adjusting the beverage samples to Brix 5 in terms of sugar [1, 4] | sweetness level, times higher in average than that of sugar ([1]; average of panelists, 48 mg in 400 mL pure water) | sweetness (sensory evaluation, in words) ([2]; beverage samples in pure water, Brix 5 in terms of sugar, vs Reb.A, Reb.D, Reb.M, FIG. 14) | lingering sweet and bitter aftertastes ([2]; general statement in the description) |
| --- | --- | --- | --- | --- | --- |
| C=C1C[C@@]23CC[C@H]4[C@@](C)(CCC[C@@]4(C)C(=O)O[C@@H]4O[C@H](CO)[C@@H](O)[C@H](O)[C@H]4O)[C@@H]2CC[C@]1(O[C@@H]1O[C@H](CO)[C@@H](O)[C@H](O[C@@H]2O[C@H](CO)[C@@H](O)[C@H](O)[C@H]2O)[C@H]1O[C@@H]1O[C@H](CO)[C@@H](O)[C@H](O)[C@H]1O)C3 [Reb A, rebaudioside A] | 312 | 288 |  |  |  |
| C=C1C[C@@]23CC[C@H]4[C@@](C)(CCC[C@@]4(C)C(=O)O[C@@H]4O[C@H](CO)[C@@H](O)[C@H](O[C@@H]5O[C@H](CO)[C@@H](O)[C@H](O)[C@H]5O)[C@H]4O[C@@H]4O[C@H](CO)[C@@H](O)[C@H](O)[C@H]4O)[C@@H]2CC[C@]1(O[C@@H]1O[C@H](CO)[C@@H](O)[C@H](O[C@@H]2O[C@H](CO)[C@@H](O)[C@H](O)[C@H]2O)[C@H]1O[C@@H]1O[C@H](CO)[C@@H](O)[C@H](O)[C@H]1O)C3 [Reb M, rebaudioside M] | 341 | 324 |  |  |  |
| C=C1CC23CCC4C(C)(C(=O)OC5OC(CO)C(O)C(O)C5OC5OCC(O)C(O)C5O)CCCC4(C)C2CCC1(OC1OC(CO)C(O)C(OC2OC(CO)C(O)C(O)C2O)C1OC1OC(CO)C(O)C(O)C1O)C3 (stereo not shown) [Novel steviol glycoside A] | 354 |  | about 354 times | less sweetness | less lingering sweet and bitter aftertastes |
| C=C1C[C@@]23CC[C@H]4[C@@](C)(CCC[C@@]4(C)C(=O)O[C@@H]4O[C@H](CO)[C@@H](O)[C@H](O)[C@H]4O[C@@H]4O[C@H](CO)[C@@H](O)[C@H](O)[C@H]4O)[C@@H]2CC[C@]1(O[C@@H]1O[C@H](CO)[C@@H](O)[C@H](O[C@@H]2O[C@H](CO)[C@@H](O)[C@H](O)[C@H]2O)[C@H]1O[C@@H]1O[C@H](CO)[C@@H](O)[C@H](O)[C@H]1O)C3 [Reb D, rebaudioside D] | 317 | 310 |  |  |  |
